No end group written: not given here.
Experiments:
PDK2 = assay: 2-D IEF phosphorylation of PDK2 in hearts after I/R; set-up: species or system rat; conditions: cardiac I/R
Description: (§1) An ex vivo model of acute ischemic heart damage was used, which involves a 30 min equilibration period, followed by 30 min of global ischemia, which in turn is followed by 60 min of reperfusion. The hearts were perfused with 1 μM TAT or TAT-conjugated peptide. Normoxic control hearts were subjected to 90 min perfusion in the absence of ischemia. Coronary effluent was collected to determine creatine phosphokinase (CPK) release during the first 30 min of the reperfusion period. At the end of the reperfusion period, hearts were sliced into 1-mm-thick transverse sections and incubated in triphenyltetrazolium chloride solution (TTC, 1% in phosphate buffer, pH 7.4) at 37° C. for 15 min. Infarct size was expressed as a percentage of the risk zone (equivalent to total LV muscle mass) (methods described in Brandman et al., 2007, J. Biol. Chem., 282:4113-4123; Inagaki et al., 2003, Circulation, 108:869-875). […]
As described above, δPKC phosphorylation of PDK following cardiac ischemia and reperfusion leads to the phosphorylation and a decline in the activity of pyruvate dehydrogenase (PDH) (Churchill et al., 2005, Circ. Res., 97:78-85). […] Since ΨPDK is derived from the PDK homologous sequence in δPKC, it was next determined whether PDK phosphorylation is affected by ΨPDK treatment.

hearts subjected to I/R = assay: Ex vivo cardiac protection from ischemia/reperfusion (Langendorff; infarct size, CPK release); set-up: species or system rat
Description: as §1
First, I/R-induced infarct size after treatment with ΨPDK or δV1-1 (Inagaki et al., 2003, Circulation, 108:869-875), was smaller than that in hearts treated with the control peptide or with ΨδRACK, the δPKC-specific activator or with δV1-5 (FIG. 6A). Second, similar data were obtained when determining the levels of released creatine phosphokinase (CPK), as a marker of myocardial infarction; CPK levels in the ΨPDK- or δV1-1-treated hearts were similar and were lower than those after treatment with control peptide, ΨδRACK or δV1-5 (FIG. 6B).
To begin determining the contribution of each of the amino acids on the effect of the peptide, Alanine scanning was used (Brunel et al., 2006, J. Virol., 80:1680-1687; Chen et al., J. Pep. Res., 2000, 56:147-156; Brems et al., 1992, Prot. Eng., 5:527-533) (substituting individual amino acid with an alanine). The resultant ΨPDK peptide analogs were then used in the same model of myocardial infarction, using CPK release and JNK phosphorylation as markers for cardiac injury. CPI release into the perfusates and pJNK in the hearts were determined after I/R in the presence of respective peptides and compared to the levels in hearts subjected to I/R in the presence of the control peptide. None of the peptides having a substitution had any significant biological activity (Table 1).

δPKC = target: T1, δPKC (Mus musculus, UniProt P28867); assay: MARCKS phosphorylation in wild-type fibroblasts (Western blot); type: cell-based; conditions: 20% serum, peptides conjugated to TAT47-57, relative to control peptide
T1 construct: endogenous in cells; host or cells: primary fibroblasts from wild-type mice
T1 sequence (P28867 whole entry): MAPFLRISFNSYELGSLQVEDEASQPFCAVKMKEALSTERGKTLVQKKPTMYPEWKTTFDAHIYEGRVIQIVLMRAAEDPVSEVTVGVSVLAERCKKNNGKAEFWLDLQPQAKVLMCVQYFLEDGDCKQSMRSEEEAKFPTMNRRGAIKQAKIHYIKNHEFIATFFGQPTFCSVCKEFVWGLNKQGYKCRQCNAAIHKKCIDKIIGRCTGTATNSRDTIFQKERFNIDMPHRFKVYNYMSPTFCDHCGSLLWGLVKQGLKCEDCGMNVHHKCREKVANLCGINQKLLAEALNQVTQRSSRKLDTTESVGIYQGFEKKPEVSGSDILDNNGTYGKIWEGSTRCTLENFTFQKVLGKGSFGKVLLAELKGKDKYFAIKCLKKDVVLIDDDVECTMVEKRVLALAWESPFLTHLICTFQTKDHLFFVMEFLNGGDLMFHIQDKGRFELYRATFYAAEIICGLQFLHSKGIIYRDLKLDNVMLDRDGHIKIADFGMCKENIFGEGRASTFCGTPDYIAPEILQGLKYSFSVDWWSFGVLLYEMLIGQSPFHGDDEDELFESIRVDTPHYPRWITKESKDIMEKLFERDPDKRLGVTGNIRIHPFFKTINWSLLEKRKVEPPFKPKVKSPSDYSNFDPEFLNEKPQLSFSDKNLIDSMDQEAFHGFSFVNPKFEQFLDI
Source text: Fibroblasts were isolated from wild-type or δPKC knockout mice (provided by Dr. Robert Messing, Gallo Center, UCSF) as previously described (Disatnik et al., 2004, J. Cell Sci., 117:4469-4479) and maintained in 20% fetal bovine serum.
Phosphorylation of myristoylated alanine-rich C kinase substrate (MARCKS), a ubiquitous PKC substrate, was monitored by Western blot of total cell lysates, using anti-phosphorylated MARCKS (Cell Signaling, Danvers, Mass.). Anti-MARCKS and anti-δPKC antibodies were obtained from Santa Cruz Biotechnology (Santa Cruz Biotechnology, CA, USA).
The ΨPDK sequence is found both in PDK and in the PDK-cognate protein, δPKC. It was therefore predicted that ΨPDK mimics inhibitory intra-molecular interaction, and, similar to ΨδRACK, ΨPDK should compete with the inhibitory interaction of PDK and δPKC, and increase δPKC-mediated functions (FIG. 1A). Phosphorylation of myristoylated alanine-rich C-kinase substrate (MARCKS) was used as a marker of PKC activity (Disatnik et al., 2004, J. Cell. Sci., 117:4469-4479). […] To determine the selectivity of the peptides for δPKC, fibroblasts derived from δPKC knock-out mice were also used.

[1] = ex vivo I/R, vs control peptide, ΨδRACK or δV1-5

With “ALSTER (not fully specified (C-terminus); also: TAT47-57 conjugated via disulfide) [ΨPDK, for cells and hearts conjugated to TAT47-57 via disulfide bond]” the “phosphorylation of PDK2” value (PDK2) was “did not occur”, the “cardioprotection / biological activity in ex vivo I/R model (in words)” value (hearts subjected to I/R; CPK release and JNK phosphorylation as markers) was “exert cardio-protective effects” and the “CPK (u/L)” value (hearts subjected to I/R; ex vivo I/R, release into perfusate, 1 μM peptide) was 335 ± 520 u/L. The “CPK levels (in words)” value (hearts subjected to I/R; [1]) was “lower”, the I/R-induced infarct size (hearts subjected to I/R; [1]) was “smaller” and the MARCKS phosphorylation (δPKC) was “increased MARCKS phosphorylation”.

Reference: patent US10131691B2, “Compositions and methods for specific regulation of pyruvate dehydrogenase kinase” (THE BOARD OF TRUSTEES OF THE LELAND STANFORD JUNIOR …, priority 2011, dated 2018)
